Data on four molecules can be found in patent US7964531B2, “3-phenoxy-4-pyridazinol derivatives and herbicidal composition containing the same” (Mitsui Chemicals Agro, Inc., priority 2001, dated 2011).

What all share (type): in vivo
Details in all cases: wettable powder applied 3 days after transplanting, judged after 25 days

The test system of data set [1] is barnyardgrass (Echinochloa oryzicola Vasing.). The data set is described as follows: Test Example 1: herbicidal effects, paddy-field pot test. An outline of the steps:
(§1)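 Paddy soil pots sown with dormancy-broken weed seeds mixed into the top 1 cm, plus germinated Cyperus serotinus tubers and transplanted 2.2-leaf rice seedlings, grown flooded in a greenhouse. Water-diluted wettable powder applied 3 days after transplanting; growth inhibition scored 25 days later on a 0–5 scale (0 = 0–10%, 5 = 91–100%).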

Data set [2] relates to annual broad-leaved weeds (Lindernia spp., Rotala indica). Described as above. An outline of the steps: as §1
The subject of data set [3] is Cyperus serotinus. The data set is described as above. The method in brief:
as §1

The test system of data set [4] is Scirpus joncoides. The description is as above. An outline of the steps: as §1
In data set [5] the test system is transplanted paddy-field rice. In words: Test Example 1: crop injury against transplanted paddy-field rice. The method in brief: as §1

SMILES strings stand for the structures.

With `Oc1cc(Cl)nnc1Oc1c(F)cccc1Br` [Example 233], the “Herbicidal effects Barnyard grass” value in data set [1] (chemical dosage 10 g/a) is listed as 3 (Growth inhibition rate; 51 to 70%); in data set [1] (chemical dosage 20 g/a), 4 (Growth inhibition rate; 71 to 90%). Moreover, the “Herbicidal effects Broad leaf” value in data set [2] (chemical dosage 10 g/a) was 4 (Growth inhibition rate; 71 to 90%); in data set [2] (chemical dosage 20 g/a), 5 (Growth inhibition rate; 91 to 100%). Further, the “Herbicidal effects Cyperus serotinus” value is reported as 4 (Growth inhibition rate; 71 to 90%) in data set [3] (chemical dosage 10 g/a) and 5 (Growth inhibition rate; 91 to 100%) in data set [3] (chemical dosage 20 g/a). Besides, the “Herbicidal effects Scirpus joncoides” value is given as 3 (Growth inhibition rate; 51 to 70%) in data set [4] (chemical dosage 10 g/a) and 5 (Growth inhibition rate; 91 to 100%) in data set [4] (chemical dosage 20 g/a). Moreover, the “Crop injury against transplanted rice” value in data set [5] (chemical dosage 10 g/a) and in data set [5] (chemical dosage 20 g/a) was 0 (Growth inhibition rate; 0 to 10%) throughout.

Regarding `Oc1cc(Cl)nnc1Oc1ccccc1I` [Example 52], the “Herbicidal effects Barnyard grass” value in data set [1] (chemical dosage 10 g/a) is 3 (Growth inhibition rate; 51 to 70%); in data set [1] (chemical dosage 20 g/a) it was 4 (Growth inhibition rate; 71 to 90%). In addition, the “Herbicidal effects Broad leaf” value in data set [2] (chemical dosage 10 g/a) and in data set [2] (chemical dosage 20 g/a) was 5 (Growth inhibition rate; 91 to 100%) each time. Further, the “Herbicidal effects Cyperus serotinus” value in data set [3] (chemical dosage 10 g/a) and in data set [3] (chemical dosage 20 g/a) was 5 (Growth inhibition rate; 91 to 100%) in each case. The “Herbicidal effects Scirpus joncoides” value in data set [4] (chemical dosage 10 g/a) and in data set [4] (chemical dosage 20 g/a) was 5 (Growth inhibition rate; 91 to 100%) in each case. Further, the “Crop injury against transplanted rice” value in data set [5] (chemical dosage 10 g/a) and in data set [5] (chemical dosage 20 g/a) was 0 (Growth inhibition rate; 0 to 10%) throughout.

Take `COC(=O)Oc1cc(Cl)nnc1Oc1ccccc1C1CC1` [Example 345]: the “Herbicidal effects Barnyard grass” value is reported as 3 (Growth inhibition rate; 51 to 70%) in data set [1] (chemical dosage 10 g/a) and 4 (Growth inhibition rate; 71 to 90%) in data set [1] (chemical dosage 20 g/a). The “Herbicidal effects Broad leaf” value in data set [2] (chemical dosage 10 g/a) and in data set [2] (chemical dosage 20 g/a) was 5 (Growth inhibition rate; 91 to 100%) throughout. For the same molecule, the “Herbicidal effects Cyperus serotinus” value in data set [3] (chemical dosage 10 g/a) and in data set [3] (chemical dosage 20 g/a) was 5 (Growth inhibition rate; 91 to 100%) throughout. Also, the “Herbicidal effects Scirpus joncoides” value in data set [4] (chemical dosage 10 g/a) and in data set [4] (chemical dosage 20 g/a) was 5 (Growth inhibition rate; 91 to 100%) throughout. The “Crop injury against transplanted rice” value in data set [5] (chemical dosage 10 g/a) and in data set [5] (chemical dosage 20 g/a) was 0 (Growth inhibition rate; 0 to 10%) each time.

Regarding `Cc1cc(C)c(Br)c(Oc2nnc(Cl)cc2O)c1` [Example 285], the “Herbicidal effects Barnyard grass” value in data set [1] (chemical dosage 10 g/a) and in data set [1] (chemical dosage 20 g/a) was 0 (Growth inhibition rate; 0 to 10%) in each case. Also, the “Herbicidal effects Broad leaf” value in data set [2] (chemical dosage 10 g/a) and in data set [2] (chemical dosage 20 g/a) was 5 (Growth inhibition rate; 91 to 100%) throughout. The “Herbicidal effects Cyperus serotinus” value in data set [3] (chemical dosage 10 g/a) is recorded as 2 (Growth inhibition rate; 31 to 50%); in data set [3] (chemical dosage 20 g/a), 3 (Growth inhibition rate; 51 to 70%). Moreover, the “Herbicidal effects Scirpus joncoides” value is reported as 4 (Growth inhibition rate; 71 to 90%) in data set [4] (chemical dosage 10 g/a) and 5 (Growth inhibition rate; 91 to 100%) in data set [4] (chemical dosage 20 g/a). Moreover, the “Crop injury against transplanted rice” value in data set [5] (chemical dosage 10 g/a) and in data set [5] (chemical dosage 20 g/a) was 0 (Growth inhibition rate; 0 to 10%) throughout.
